Experiments:
[1] = Metabolic stability in mouse liver microsomes assessed as intrinsic clearance; format: ADME, Microsome; conditions: read-out: CLH
[2] = target: T1, G-protein coupled receptor 183 (Homo sapiens, UniProt P32249)
Description: Antagonist activity at GPR183 (unknown origin) transfected in HEK293 cells incubated for 30 mins by Glosensor cAMP assay

[3] = target: T1, G-protein coupled receptor 183; assay: Antagonist activity at GPR183 (unknown origin) incubated for 30 mins by calcium mobilization assay; format: functional

T1 sequence (P32249 whole entry): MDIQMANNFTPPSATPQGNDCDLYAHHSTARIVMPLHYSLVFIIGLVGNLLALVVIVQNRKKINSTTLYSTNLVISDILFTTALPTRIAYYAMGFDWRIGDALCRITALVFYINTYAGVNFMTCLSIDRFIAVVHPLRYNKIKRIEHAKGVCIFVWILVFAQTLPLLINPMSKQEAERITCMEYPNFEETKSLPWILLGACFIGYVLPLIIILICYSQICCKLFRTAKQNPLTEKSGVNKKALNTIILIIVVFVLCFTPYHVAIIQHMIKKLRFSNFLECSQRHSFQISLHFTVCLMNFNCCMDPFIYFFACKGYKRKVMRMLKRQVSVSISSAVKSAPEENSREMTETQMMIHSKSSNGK

Structure (SMILES) | IC50 [2] [nM] | also measured
O=C(COc1ccc2ccccc2c1)N1CCN(C(=O)Cc2ccccc2)CC1 |  | microsomal CLint [1]: 301 µL/min/mg
COc1ccc(C(=O)NC23CC(NC(=O)/C=C/c4ccc(Br)cc4)(C2)C3)cc1 | > 10000 | 
Cn1ccc2ccc(C(=O)N3CCN(C(=O)/C=C/c4ccc(Br)cc4)CC3)cc21 | 7.9 | 
COc1cc(C(C)NC(=O)Cc2c(C)nc(C)[nH]c2=O)cc(OC)c1OC (stereo not drawn) |  | IC50 [3]: 8.31 nM
CN(C)c1nc2ccc(C(=O)N3CCN(C(=O)/C=C/c4ccc(Br)cc4)CC3)cc2s1 | 54.9 | 
Nc1nc2ccc(C(=O)N3CCN(C(=O)/C=C/c4ccc(F)cc4F)CC3)cc2s1 | 8310 | 
O=C(/C=C/c1ccc(Br)cc1)N1CCN(C(=O)c2ccc3nc(S)[nH]c3c2)CC1 | > 10000 | 
Nc1nc2ccc(C(=O)N3CCN(C(=O)/C=C/c4ccc(C(F)(F)F)cc4)CC3)cc2s1 | 30.1 | 
COc1ccc(NC(=O)C(F)(F)C2CCN(C(=O)/C=C/c3ccc(Br)cc3)CC2)cc1 | 5.7 | 
Cc1nc2ccc(C(=O)N3CCN(C(=O)/C=C/c4ccc(Br)cc4)CC3)cc2[nH]1 | > 10000 | 
Nc1nc2ccc(C(=O)N3CCN(C(=O)/C=C/c4ccc(Cl)cc4)CC3)cc2s1 | 15.9 | 
O=C(/C=C/c1ccc(Br)cc1)N1CCN(C(=O)c2ccc3[nH]c(=O)[nH]c3c2)CC1 | > 10000 | 
Cc1c[nH]c2cc(C(=O)N3CCN(C(=O)/C=C/c4ccc(Br)cc4)CC3)ccc12 | 18.9 | 
COc1ccc(C(=O)NCC2(F)CCN(C(=O)/C=C/c3ccc(Br)cc3)CC2)cc1 | 66.2 | 
O=C(Nc1nc2ccc(C(=O)N3CCN(C(=O)/C=C/c4ccc(Br)cc4)CC3)cc2s1)C1CC1 | 76.9 | 
O=C(/C=C/c1ccc(Br)cc1)N1CCN(C(=O)c2ccc3nc(C(F)(F)F)sc3c2)CC1 | 2.54 | 
COc1ccc(NC(=O)CC2CCN(C(=O)/C=C/c3ccc(Br)cc3)CC2(F)F)cc1 (stereo not drawn) | 54.2 | 
COc1ccc(C(=O)N2CC3CCC(C2)N3C(=O)/C=C/c2ccc(Br)cc2)cc1 | > 10000 | 

Source: ChEMBL document CHEMBL5528074 (J Med Chem, 2024)
